PubChem BioAssay AID248 (DTP/NCI, 2004)
Where “and” joins values, the source holds several entries; their conditions need not be identical. Equal entries are not always repeated. Toxic doses and inconclusive results are not listed. No stated cut-off is given here; in the data, active means T/C of 150% or more; inactive means T/C below 125%.

Tested on: L1210 leukemia ip in BDF1 mice, survival T/C
Assay: NCI In Vivo Anticancer Drug Screen. Data for tumor model L1210 Leukemia (intraperitoneal) in B6D2F1 (BDF1) mice
Conditions: endpoint: mean survival time, higher = longer survival
Summary of the method: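 Antitumor effect is assessed in tumor-bearing animals. Survival in the compound arm is compared with a vehicle-dosed control arm and expressed as their quotient.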

[1] = dose: 100.0 mg/kg/injection, schedule: Q01DX009 (ip), vehicle: Klucel (hydroxypropylcellulose) (HPC)
[2] = dose: 100.0 mg/kg/injection, schedule: Q04DX003 (ip), vehicle: Klucel (hydroxypropylcellulose) (HPC)
[3] = dose: 200.0 mg/kg/injection, schedule: Q01DX009 (ip), vehicle: Klucel (hydroxypropylcellulose) (HPC)
[4] = dose: 200.0 mg/kg/injection, schedule: Q04DX003 (ip), vehicle: Klucel (hydroxypropylcellulose) (HPC)
[5] = dose: 400.0 mg/kg/injection, schedule: Q04DX003 (ip), vehicle: Klucel (hydroxypropylcellulose) (HPC)
[6] = dose: 100.0 mg/kg/injection, schedule: Q04DX003 (ip), vehicle: saline with Tween-80
[7] = dose: 200.0 mg/kg/injection, schedule: Q04DX003 (ip), vehicle: saline with Tween-80
[8] = dose: 400.0 mg/kg/injection, schedule: Q04DX003 (ip), vehicle: saline with Tween-80
[9] = dose: 100.0 mg/kg/injection, schedule: Q04DX003 (ip), vehicle: saline
[10] = dose: 100.0 mg/kg/injection, schedule: Q01DX009 (ip), vehicle: saline with Tween-80
[11] = dose: 200.0 mg/kg/injection, schedule: Q01DX009 (ip), vehicle: saline with Tween-80

Measured: T/C

OC1COC(c2ccco2)OC1 (stereo not given) (tested in a mixture with another compound)
inactive: [1] 94 % of control | [2] 102 % of control | [3] 105 % of control | [4] 101 % of control | [5] 102 % of control

COc1ccccc1NCS(=O)(=O)O
inactive: [6] 98 % of control | [7] 102 % of control | [8] 100 % of control

COc1ccccc1N1C(N)=NC(N)=NC1(C)C
inactive: dose: 25.0 mg/kg/injection, schedule: Q01DX009 (ip), vehicle: saline 104 % of control | dose: 25.0 mg/kg/injection, schedule: Q04DX003 (ip), vehicle: saline 113 % of control | dose: 50.0 mg/kg/injection, schedule: Q01DX009 (ip), vehicle: saline 98 % of control and 100 % of control | dose: 50.0 mg/kg/injection, schedule: Q04DX003 (ip), vehicle: saline 97 % of control | [9] 92 % of control

CCC[CH2][Sn]1([CH2]CCC)[O]OC2([O]1)C1CC3CC(C1)CC2C3 (stereo not given)
inactive: dose: 3.0 mg/kg/injection, schedule: Q04DX002 (ip), vehicle: Klucel (hydroxypropylcellulose) (HPC) 90 % of control | dose: 6.0 mg/kg/injection, schedule: Q04DX002 (ip), vehicle: Klucel (hydroxypropylcellulose) (HPC) 108 % of control | dose: 12.0 mg/kg/injection, schedule: Q04DX002 (ip), vehicle: Klucel (hydroxypropylcellulose) (HPC) 108 % of control | dose: 12.5 mg/kg/injection, schedule: Q04DX002 (ip), vehicle: Klucel (hydroxypropylcellulose) (HPC) 101 % of control

CCCCNC(=O)Nc1ccc(SC)cc1
inactive: [1] 103 % of control | [2] 94 % of control | [3] 95 % of control | [4] 93 % of control | dose: 400.0 mg/kg/injection, schedule: Q01DX009 (ip), vehicle: Klucel (hydroxypropylcellulose) (HPC) 88 % of control | [5] 94 % of control

CC(=O)NCCCCCCNC(C)=O
inactive: dose: 10.0 mg/kg/injection, schedule: Q01DX Z (ip), vehicle: saline 100 % of control | dose: 30.0 mg/kg/injection, schedule: Q01DX Z (ip), vehicle: saline 104 % of control | dose: 100.0 mg/kg/injection, schedule: Q01DX Z (ip), vehicle: saline 100 % of control | dose: 300.0 mg/kg/injection, schedule: Q01DX Z (ip), vehicle: saline 100 % of control

C=C(Br)CNC(=O)OC
inactive: dose: 25.0 mg/kg/injection, schedule: Q04DX003 (ip), vehicle: saline with Tween-80 100 % of control | dose: 50.0 mg/kg/injection, schedule: Q04DX003 (ip), vehicle: saline with Tween-80 105 % of control | [6] 121 % of control

BrCC(Br)c1ccccc1 (stereo not given)
inactive: [2] 91 % of control | [4] 91 % of control | [5] 98 % of control

CC(=O)CC(=O)Nc1cccc(C)n1
inactive: dose: 100.0 mg/kg/injection, schedule: Q01DX001 (ip), vehicle: saline 100 % of control | dose: 100.0 mg/kg/injection, schedule: Q04DX002 (ip), vehicle: Klucel (hydroxypropylcellulose) (HPC) 94 % of control | dose: 200.0 mg/kg/injection, schedule: Q01DX001 (ip), vehicle: saline 110 % of control | dose: 200.0 mg/kg/injection, schedule: Q04DX002 (ip), vehicle: Klucel (hydroxypropylcellulose) (HPC) 97 % of control

O=C1NC(=O)/C(=C/c2ccco2)N1
inactive: [2] 103 % of control | [4] 90 % of control

Cc1ccnc2c([N+](=O)[O-])cccc12
inactive: dose: 75.0 mg/kg/injection, schedule: Q01DX001 (ip), vehicle: other 102 % of control | dose: 100.0 mg/kg/injection, schedule: Q04DX002 (ip), vehicle: saline with Tween-80 103 % of control | dose: 150.0 mg/kg/injection, schedule: Q01DX001 (ip), vehicle: other 102 % of control | dose: 200.0 mg/kg/injection, schedule: Q04DX002 (ip), vehicle: saline with Tween-80 109 % of control | dose: 300.0 mg/kg/injection, schedule: Q01DX001 (ip), vehicle: other 103 % of control

O=C1CCCCc2ccc([N+](=O)[O-])cc21
inactive: dose: 50.0 mg/kg/injection, schedule: Q01DX001 (ip), vehicle: other 86 % of control | dose: 100.0 mg/kg/injection, schedule: Q01DX001 (ip), vehicle: other 98 % of control | dose: 200.0 mg/kg/injection, schedule: Q01DX001 (ip), vehicle: other 96 % of control | dose: 400.0 mg/kg/injection, schedule: Q01DX001 (ip), vehicle: other 88 % of control

OC1(c2cccc3ccccc23)CCCCC1
inactive: dose: 50.0 mg/kg/injection, schedule: Q01DX009 (ip), vehicle: saline with Tween-80 100 % of control | [10] 94 % of control | [6] 94 % of control | [11] 103 % of control | [7] 91 % of control

O=C(Nc1ccc(Cl)cc1)Oc1ccc2ccccc2c1
inactive: [9] 103 % of control | dose: 200.0 mg/kg/injection, schedule: Q04DX003 (ip), vehicle: saline 92 % of control | dose: 400.0 mg/kg/injection, schedule: Q04DX003 (ip), vehicle: saline 97 % of control

O=C(/C=C/c1ccccc1)c1ccccc1O
inactive: [10] 89 % of control | [6] 100 % of control | [11] 86 % of control | [7] 98 % of control | dose: 400.0 mg/kg/injection, schedule: Q01DX009 (ip), vehicle: saline with Tween-80 94 % of control | [8] 98 % of control

BrC1C2C3C=CC4C(C=C3)C4C12 (stereo not given)
inactive: dose: 50.0 mg/kg/injection, schedule: Q01DX001 (ip), vehicle: Klucel (hydroxypropylcellulose) (HPC) 100 % of control and 101 % of control | dose: 100.0 mg/kg/injection, schedule: Q01DX001 (ip), vehicle: Klucel (hydroxypropylcellulose) (HPC) 98 % of control and 111 % of control | dose: 200.0 mg/kg/injection, schedule: Q01DX001 (ip), vehicle: Klucel (hydroxypropylcellulose) (HPC) 108 % of control and 93 % of control
